# Assay results published in article PMC7697948, “Deciphering Novel Antimicrobial Peptides from the Transcriptome of Papilio xuthus” (Insects, 2020).
# Experiments:
# [1] = test system: Gram-positive and Gram-negative bacteria; details: effect more pronounced in Gram-negative strains; cited from earlier work
# From the text: (§1) Papilio xuthus (P. xuthus), commonly known as the swallowtail butterfly, is found in the far east Asian regions of Korea, Japan, China, Taiwan, and Myanmar. Papiliocin is the 37 residue α-helical cecropin-like AMP isolated from an immune challenged larvae of swallowtail butterfly. […] Additionally, the antibacterial and antifungal activity of papiliocin is observed in multidrug- resistant bacterial and fungal strains, respective ...
# [2] = cited from earlier work
# From the text: as §1
# mammalian cells = details: cited from earlier work
# From the text: as §1
# mouse erythrocytes = experiment: Hemolytic assay; assay type: cell-based; details: 12.5 μg/mL; 2.5% (v/v) mouse erythrocytes in PBS, 30 min at 37 °C, absorbance at 540 nm; at least three independent experiments in triplicate
# Description: This experiment was approved by the Institutional Animal Care and Use Committee (IACUC) of the National Institute of Agricultural Sciences (approval number: NAS-202014). The hemolytic activity of the peptides was determined by monitoring the release of hemoglobin from mouse erythrocytes at 540 nm. For the hemolytic assay, 20 μL of each peptide solution at a predetermined concentration was added to 180 μL of a 2.5% (v/v) suspension of mouse erythrocytes in phosphate-buffered saline (PBS). Melittin (Sigma, USA), a hemolytic and α-helical peptide isolated from bee venom, was used as the positive control. This mixture was incubated for 30 min at 37 °C, and 600 μL of PBS was then added to each tube. After 3 min of centrifugation at 10,000× g, the supernatant was removed, and the absorbance was measured at 540 nm. Evaluations were made from the results of at least three independent experiments, each carried out in triplicate.
Compound,bactericidal activity [1],anti-inflammatory activity [2],toxicity toward mammalian cells (mammalian cells),hemolysis of mouse red blood cells (mouse erythrocytes) [%]
Papiliocin,bactericidal activity against both Gram-positive and Gram-negative bacteria,anti-inflammatory activity,non-toxicity toward mammalian cells,–
CC[C@H](C)[C@H](NC(=O)CN)C(=O)NCC(=O)N[C@@H](C)C(=O)N[C@H](C(=O)N[C@@H](CC(C)C)C(=O)N[C@@H](CCCCN)C(=O)N[C@H](C(=O)N[C@@H](CC(C)C)C(=O)N[C@H](C(=O)N[C@H](C(=O)NCC(=O)N[C@@H](CC(C)C)C(=O)N1CCC[C@H]1C(=O)N[C@@H](C)C(=O)N[C@@H](CC(C)C)C(=O)N[C@H](C(=O)N[C@@H](CO)C(=O)N[C@@H](Cc1c[nH]c2ccccc12)C(=O)N[C@H](C(=O)N[C@@H](CCCCN)C(=O)N[C@@H](CCCNC(=N)N)C(=O)N[C@@H](CCCCN)C(=O)N[C@@H](CCCNC(=N)N)C(=O)N[C@@H](CCC(N)=O)C(=O)N[C@@H](CCC(N)=O)C(N)=O)[C@@H](C)CC)[C@@H](C)CC)[C@@H](C)O)[C@@H](C)O)C(C)C)C(C)C [Melittin],–,–,–,92
